Measured values as given in PubChem BioAssay AID330 (DTP/NCI, 2004).
Several values for one entry are separate records, joined by “and”; a condition that tells them apart may be missing. Identical values can stand only once. Toxic doses and inconclusive results are not listed.

Test system: P388 leukemia ip, CD2F1 mice, survival T/C
Experiment: NCI In Vivo Anticancer Drug Screen. Data for tumor model P388 Leukemia (intraperitoneal) in CD2F1 (CDF1) mice
Conditions: endpoint: median survival time, higher = longer survival
Procedure, shortened: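 Mice carrying the transplanted tumor received test compound or vehicle. Survival was recorded in each group, and the value is the treated-group measurement divided by that of the vehicle-treated control group.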

[1] = dose: 50.0 mg/kg/injection, schedule: Q01DX009 (ip), vehicle: saline with Tween-80
[2] = dose: 100.0 mg/kg/injection, schedule: Q01DX009 (ip), vehicle: saline with Tween-80
[3] = dose: 200.0 mg/kg/injection, schedule: Q01DX009 (ip), vehicle: saline with Tween-80
[4] = dose: 50.0 mg/kg/injection, schedule: Q01DX009 (ip), vehicle: Klucel (hydroxypropylcellulose) (HPC)
[5] = dose: 100.0 mg/kg/injection, schedule: Q01DX009 (ip), vehicle: Klucel (hydroxypropylcellulose) (HPC)
[6] = dose: 200.0 mg/kg/injection, schedule: Q01DX009 (ip), vehicle: Klucel (hydroxypropylcellulose) (HPC)
[7] = dose: 50.0 mg/kg/injection, schedule: Q01DX005 (ip), vehicle: Klucel (hydroxypropylcellulose) (HPC)
[8] = dose: 100.0 mg/kg/injection, schedule: Q01DX005 (ip), vehicle: Klucel (hydroxypropylcellulose) (HPC)
[9] = dose: 200.0 mg/kg/injection, schedule: Q01DX005 (ip), vehicle: Klucel (hydroxypropylcellulose) (HPC)

SMILES: O=[N+]([O-])c1ccc(N2CCN(c3ccccc3)CC2)c2c1no[n+]2[O-]
- T/C (dose: 37.5 mg/kg/injection, schedule: Q04DX003 (ip), vehicle: saline): 105 % of control
- T/C (dose: 37.5 mg/kg/injection, schedule: Q04DX003 (ip), vehicle: suspension in saline): 104 % of control
- T/C (dose: 75.0 mg/kg/injection, schedule: Q04DX003 (ip), vehicle: saline): 100 % of control
- T/C (dose: 75.0 mg/kg/injection, schedule: Q04DX003 (ip), vehicle: suspension in saline): 100 % of control
- T/C (dose: 150.0 mg/kg/injection, schedule: Q04DX003 (ip), vehicle: saline): 97 % of control
- T/C (dose: 150.0 mg/kg/injection, schedule: Q04DX003 (ip), vehicle: suspension in saline): 111 % of control
- T/C (dose: 300.0 mg/kg/injection, schedule: Q04DX003 (ip), vehicle: saline): 101 % of control
- T/C (dose: 300.0 mg/kg/injection, schedule: Q04DX003 (ip), vehicle: suspension in saline): 104 % of control

SMILES: O=C(CCl)N1CCN(C/C=C/c2ccccc2)CC1
- T/C (dose: 60.0 mg/kg/injection, schedule: Q01DX005 (ip), vehicle: saline): 103 % of control
- T/C (dose: 120.0 mg/kg/injection, schedule: Q01DX005 (ip), vehicle: saline): 105 % of control

SMILES: CCCC(=O)C(=O)c1ccc(O)c(C)c1O
- T/C [1]: 101 % of control
- T/C [2]: 99 % of control
- T/C [3]: 102 % of control

SMILES: Cc1ccc([N+](=O)[O-])c2ccccc12
- T/C [4]: 113 % of control and 97 % of control
- T/C [1]: 109 % of control
- T/C [5]: 100 % of control and 98 % of control
- T/C [2]: 100 % of control
- T/C [6]: 103 % of control and 120 % of control
- T/C [3]: 96 % of control
- T/C (dose: 400.0 mg/kg/injection, schedule: Q01DX009 (ip), vehicle: Klucel (hydroxypropylcellulose) (HPC)): 86 % of control and 97 % of control

SMILES: CS(=O)(=O)OCCN(CCOS(C)(=O)=O)c1cccc(C(F)(F)F)c1
- T/C (dose: 0.75 mg/kg/injection, schedule: Q04DX003 (ip), vehicle: saline): 100 % of control
- T/C (dose: 1.5 mg/kg/injection, schedule: Q04DX003 (ip), vehicle: saline): 100 % of control
- T/C (dose: 3.0 mg/kg/injection, schedule: Q04DX003 (ip), vehicle: saline): 100 % of control
- T/C (dose: 25.0 mg/kg/injection, schedule: Q04DX003 (ip), vehicle: saline with Tween-80): 170 % of control and 212 % of control
- T/C [1]: 159 % of control
- T/C (dose: 50.0 mg/kg/injection, schedule: Q04DX003 (ip), vehicle: saline with Tween-80): 216 % of control
- T/C [2]: 213 % of control
- T/C (dose: 100.0 mg/kg/injection, schedule: Q04DX003 (ip), vehicle: saline with Tween-80): 87 % of control

SMILES: NNC(=O)c1cc2c3ccccc3ncc2c2ccccc12
- T/C (dose: 100.0 mg/kg/injection, schedule: Q01DX001 (ip), vehicle: saline with Tween-80): 86 % of control
- T/C (dose: 200.0 mg/kg/injection, schedule: Q01DX001 (ip), vehicle: saline with Tween-80): 95 % of control
- T/C (dose: 400.0 mg/kg/injection, schedule: Q01DX001 (ip), vehicle: saline with Tween-80): 113 % of control

SMILES: O=C(Nc1ccc(Cl)cc1)Nc1nnc2nc(C(C(=O)c3ccc(O)cc3O)c3nc4nnc(NC(=O)Nc5ccc(Cl)cc5)n4[nH]c3=O)c(=O)[nH]n12
- T/C (dose: 60.0 mg/kg/injection, schedule: Q01DX005 (ip), vehicle: saline with Tween-80): 103 % of control
- T/C (dose: 120.0 mg/kg/injection, schedule: Q01DX005 (ip), vehicle: saline with Tween-80): 95 % of control

SMILES: O=C(CCNC(=O)OCc1ccccc1)NC(CSCc1ccccc1)C(=O)O (stereo not drawn)
- T/C (dose: 6.25 mg/kg/injection, schedule: Q01DX009 (ip), vehicle: water): 100 % of control
- T/C (dose: 12.5 mg/kg/injection, schedule: Q01DX009 (ip), vehicle: water): 100 % of control
- T/C (dose: 25.0 mg/kg/injection, schedule: Q01DX009 (ip), vehicle: water): 95 % of control
- T/C (dose: 50.0 mg/kg/injection, schedule: Q01DX009 (ip), vehicle: water): 100 % of control
- T/C (dose: 100.0 mg/kg/injection, schedule: Q01DX009 (ip), vehicle: water): 95 % of control

SMILES: C[CH2][Sn]([CH2]C)([CH2]C)[NH]S(=O)(=O)c1ccc(C)cc1
- T/C (dose: 3.12 mg/kg/injection, schedule: Q01DX009 (ip), vehicle: Klucel (hydroxypropylcellulose) (HPC)): 105 % of control

SMILES: Brc1ccc[n+](CCc2ccccc2)c1
- T/C (dose: 12.5 mg/kg/injection, schedule: Q01DX009 (ip), vehicle: saline with Tween-80): 111 % of control
- T/C (dose: 25.0 mg/kg/injection, schedule: Q01DX009 (ip), vehicle: saline with Tween-80): 98 % of control

SMILES: CCN(CC)CCCC(C)Nc1cc(-c2ccccc2)nc2cc(Cl)ccc12 (stereo not drawn)
- T/C (dose: 50.0 mg/kg/injection, schedule: Q01DX005 (ip), vehicle: saline): 106 % of control
- T/C (dose: 100.0 mg/kg/injection, schedule: Q01DX005 (ip), vehicle: saline): 112 % of control
- T/C (dose: 200.0 mg/kg/injection, schedule: Q01DX005 (ip), vehicle: saline): 116 % of control

SMILES: COC(=O)[C@@]12OC[C@]34[C@H]([C@@H](O)[C@@H]1O)[C@@]1(C)CC(=O)C(OC(=O)CC(=O)OC5=C(C)[C@@H]6C[C@H]7OC(=O)[C@H](OC(=O)/C=C(\C)C(C)C)[C@H]8[C@]9(C(=O)OC)OC[C@]78[C@H]([C@@H](O)[C@@H]9O)[C@@]6(C)CC5=O)=C(C)[C@@H]1C[C@H]3OC(=O)[C@H](OC(=O)/C=C(\C)C(C)C)[C@@H]24
- T/C (dose: 0.19 mg/kg/injection, schedule: Q01DX009 (ip), vehicle: saline + Tween-80 + alcohol): 121 % of control
- T/C (dose: 0.37 mg/kg/injection, schedule: Q01DX005 (ip), vehicle: saline + Tween-80 + alcohol): 119 % of control
- T/C (dose: 0.38 mg/kg/injection, schedule: Q01DX005 (ip), vehicle: saline + Tween-80 + alcohol): 110 % of control
- T/C (dose: 0.38 mg/kg/injection, schedule: Q01DX009 (ip), vehicle: saline + Tween-80 + alcohol): 120 % of control
- T/C (dose: 0.75 mg/kg/injection, schedule: Q01DX005 (ip), vehicle: saline + Tween-80 + alcohol): 114 % of control
- T/C (dose: 0.75 mg/kg/injection, schedule: Q01DX009 (ip), vehicle: saline + Tween-80 + alcohol): 124 % of control
- T/C (dose: 1.5 mg/kg/injection, schedule: Q01DX009 (ip), vehicle: saline + Tween-80 + alcohol): 165 % of control
- T/C (dose: 3.0 mg/kg/injection, schedule: Q01DX009 (ip), vehicle: saline + Tween-80 + alcohol): 163 % of control

SMILES: CCCCC(CC)COCC(O)Cn1cnc2c(N)ncnc21 (stereo not drawn)
- T/C [7]: 104 % of control
- T/C [8]: 97 % of control
- T/C [9]: 91 % of control

SMILES: CC1CN=C(c2ccc(NC(=O)c3ccc(C(=O)Nc4ccc(C5=NCC(C)N5)cc4)cc3)cc2)N1 (stereo not drawn)
- T/C (dose: 6.25 mg/kg/injection, schedule: Q01DX009 (ip), vehicle: suspension in saline): 184 % of control
- T/C (dose: 10.0 mg/kg/injection, schedule: Q01DX010 (ip), vehicle: saline): 209 % of control
- T/C (dose: 12.5 mg/kg/injection, schedule: Q01DX009 (ip), vehicle: suspension in saline): 245 % of control
- T/C (dose: 15.0 mg/kg/injection, schedule: Q01DX010 (ip), vehicle: saline): 231 % of control
- T/C (dose: 22.0 mg/kg/injection, schedule: Q01DX010 (ip), vehicle: saline): 154 % of control
- T/C (dose: 25.0 mg/kg/injection, schedule: Q01DX009 (ip), vehicle: suspension in saline): 294 % of control
- T/C (dose: 33.0 mg/kg/injection, schedule: Q01DX010 (ip), vehicle: saline): 209 % of control
- T/C (dose: 50.0 mg/kg/injection, schedule: Q01DX009 (ip), vehicle: suspension in saline): 166 % of control
- T/C (dose: 100.0 mg/kg/injection, schedule: Q01DX009 (ip), vehicle: suspension in saline): 154 % of control

SMILES: CC(=O)Nc1ccc(C(=O)/C=N\NC(N)=S)cc1
- T/C [1]: 94 % of control
- T/C [2]: 86 % of control
- T/C [3]: 94 % of control

SMILES: CC(=O)NC1=NN(C(C)=O)C(c2ccccc2)S1=O (stereo not drawn)
- T/C (dose: 50.0 mg/kg/injection, schedule: Q01DX005 (ip), vehicle: saline with Tween-80): 108 % of control
- T/C (dose: 100.0 mg/kg/injection, schedule: Q01DX005 (ip), vehicle: saline with Tween-80): 107 % of control

SMILES: C(=C1\Oc2ccccc2N=C1OCCN1CCOCC1)/c1ccccc1
- T/C (dose: 100.0 mg/kg/injection, schedule: Q04DX003 (ip), vehicle: Klucel (hydroxypropylcellulose) (HPC)): 97 % of control
- T/C (dose: 200.0 mg/kg/injection, schedule: Q04DX003 (ip), vehicle: Klucel (hydroxypropylcellulose) (HPC)): 99 % of control
- T/C (dose: 400.0 mg/kg/injection, schedule: Q04DX003 (ip), vehicle: Klucel (hydroxypropylcellulose) (HPC)): 98 % of control

SMILES: O/N=C1\CCC2CCCCC12 (stereo not drawn)
- T/C [7]: 98 % of control
- T/C [8]: 102 % of control
- T/C [9]: 107 % of control

SMILES: CCCCCCCCN1CCS(=O)(=O)CC1
- T/C [4]: 89 % of control
- T/C [5]: 94 % of control
- T/C [6]: 93 % of control
